Our source for the IC50 values is publication PMC13047053, “Crystal structure of human INPP5K with an allosteric inhibitor reveals the structural basis for species specific potency” (Scientific Reports, 2026).

For experiment [1], the target named is T1, human delta-INPP5K-cd (loop-substituted catalytic domain) (Homo sapiens, UniProt Q9BT40, C280K/DEL284-290/G282N/G299D/H292G/INS279A/L297Q/R298K/S294L/S296T).
T1 construct: human INPP5K catalytic domain (amino acids 1–328, INPP5K-cd, UniProt ID: Q9BT40); His6-MBP (MBP amino acids 1–387) (N, cleaved yes); TEV protease site ENLYFQG (N, cleaved yes); made in house; host or cells: E. coli Rosetta2 (DE3)
T1 sequence (Q9BT40 other isoform, or with tags, fused parts or gaps with the stated changes): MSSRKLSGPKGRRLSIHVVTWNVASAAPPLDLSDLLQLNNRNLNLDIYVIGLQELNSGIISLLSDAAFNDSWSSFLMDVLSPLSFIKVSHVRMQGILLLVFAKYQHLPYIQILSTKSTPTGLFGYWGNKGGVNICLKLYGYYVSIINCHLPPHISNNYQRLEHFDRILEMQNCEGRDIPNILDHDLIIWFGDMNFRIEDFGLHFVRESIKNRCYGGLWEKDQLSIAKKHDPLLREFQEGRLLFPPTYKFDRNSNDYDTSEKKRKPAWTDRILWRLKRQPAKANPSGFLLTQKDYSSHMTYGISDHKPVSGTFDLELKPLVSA
Briefly: Fluorescence polarization assay to evaluate phosphatase inhibition. Format: biochemical. The conditions noted are these: 20 µM diC8-PI(3,4,5)P3, 30 min. From the text: (§1) The oligonucleotides used for vector construction were synthesized and purchased from GenScript Inc. (Tokyo, Japan). The cDNA encoding human INPP5K catalytic domain (amino acids 1–328, INPP5K-cd, UniProt ID: Q9BT40), which excluded the SKICH region from the full-length INPP5K sequence, was cloned downstream of MBP (amino acids 1–387) with an N-terminal His6-tag in the pET28 expression vector, a Novagen product (Merck KGaA, Darmstadt, Germany). Between the MBP and INPP5K-cd sequences, the Tobacco Etch Virus protease cleavage site (ENLYFQG) was inserted, such that the MBP–INPP5K-cd fusion protein could be digested by TEV protease during purification. Furthermore, using the Gibson Assembly method, the sequence encoding the amino acids 280–299 ([…]) of INPP5K cd was replaced by the sequence encoding AKANPSGFLLTQKD, which corresponds to the amino acids 283–296 of the rat INPP5K-cd (UniProt ID: Q9R0B6), resulting in the deletion of six amino acid residues (delta-INPP5K-cd). The truncated construct was designed using a comparison between a structure model and the structures of several IP5Pases[9]–[11]. […] The concentration of protein obtained was measured using the Bradford method, with bovine serum albumin as the standard. Fractions corresponding to each purification step were analyzed by SDS-PAGE, followed by staining of the gel with Coomassie brilliant blue R-250. […]
(Fluorescence polarisation rises when a labelled molecule tumbles more slowly, as on binding a larger partner.)

Experiment [2] has as its target T2, human INPP5K-cd (catalytic domain, 1-328) (Homo sapiens, UniProt Q9BT40).
T2 construct: human INPP5K catalytic domain (amino acids 1–328, INPP5K-cd, UniProt ID: Q9BT40); His6-MBP (MBP amino acids 1–387) (N, cleaved yes); TEV protease site ENLYFQG (N, cleaved yes); made in house; host or cells: E. coli Rosetta2 (DE3)
T2 sequence (Q9BT40 1-328): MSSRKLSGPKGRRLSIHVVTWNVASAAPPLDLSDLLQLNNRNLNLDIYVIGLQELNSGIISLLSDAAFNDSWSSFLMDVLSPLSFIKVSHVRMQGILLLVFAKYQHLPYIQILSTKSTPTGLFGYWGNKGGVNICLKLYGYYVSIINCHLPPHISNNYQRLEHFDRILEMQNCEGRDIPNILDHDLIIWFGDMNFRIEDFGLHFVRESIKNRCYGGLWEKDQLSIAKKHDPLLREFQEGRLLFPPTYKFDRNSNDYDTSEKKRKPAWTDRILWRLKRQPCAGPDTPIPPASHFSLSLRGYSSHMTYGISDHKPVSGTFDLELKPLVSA
The experiment is described as above. The experiment is classed as biochemical. To be noted: 20 µM diC8-PI(3,4,5)P3, 30 min.
Excerpt: as §1

Regarding `CC(C)c1sc(NC(=O)c2ccccc2)c(C(=O)O)c1-c1ccccc1` [CPD-1], the IC50 in experiment [1] is 2900 nM; in experiment [2], 2300 nM.

One may read the IC50 as the concentration needed to halve the response being measured. A high value points to a need for much substance.
